Experimental data taken from publication PMC10048853 (International Journal of Molecular Sciences, 2023).
Read-outs that look alike come from different tables or passages of the source.

Assays:
Type in all cases: binding, Tritirachium album limber
proteinase K (PK) [1] = target: T1, proteinase K (PK) (Parengyodontium album, UniProt P06873); assay: Fluorescence quenching of proteinase K by MYR/MYT (Stern–Volmer, double-logarithmic and Van't Hoff analysis); settings: for Stern–Volmer constant Ksv: 3.46 μM PK, pH 8.0; for Kd: double logarithmic equation, read-out: binding constant KA (converted); for fluorescence quenching rate constant Kq: τ0 1 × 10^−8 s; for enthalpy change ∆H: Van't Hoff equation, 290, 300, 310 K; for fluorescence quenching process (mechanism): from Kq versus 2 × 10^10 L·mol^−1·s^−1
T1 construct: It is a single-chain protein consisting of 279 amino acid residues and has a molecular weight of 28,930 Da; purchased Jiuding Chemicals (Shanghai, China)
T1 sequence (P06873 106-384): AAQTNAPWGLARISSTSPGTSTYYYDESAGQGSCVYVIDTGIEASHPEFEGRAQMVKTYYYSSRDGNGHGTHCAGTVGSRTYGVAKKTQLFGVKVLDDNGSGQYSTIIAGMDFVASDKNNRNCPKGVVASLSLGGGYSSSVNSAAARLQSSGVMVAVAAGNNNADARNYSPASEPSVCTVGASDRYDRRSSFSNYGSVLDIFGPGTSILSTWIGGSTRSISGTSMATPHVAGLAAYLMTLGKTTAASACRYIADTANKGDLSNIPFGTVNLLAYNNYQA
Excerpt: Fluorescence spectroscopy is an effective method used to investigate conformational changes of proteins and binding parameters of ligands to fluorophore residues of proteins such as Trp, Tyr or Phe. PK contains two Trp residues (Trp8 and Trp212), which make it possible to emit fluorescence. […] The process by which this phenomenon occurs is called fluorescence quenching, which is the result of the altered microenvironment of PK. To eliminate the interference of fluorescence quenching from the inner filter effect, the experiments were corrected for fluorescence intensity using Equation (1). (1) Fcorr=Fobs×e^(Aex+Aem)/2 where Fcorr and Fobs are the fluorescence emission intensity values of the corrected and pre-corrected systems, respectively. Aex and Aem are the UV–Vis absorption intensities of quencher and PK at excitation and emission wavelengths, respectively.
To investigate the differences in the fluorescence quenching patterns of the PK-MYR and PK-MYT complexes, the Stern–Volmer equation (Equation (2)) was used for analysis.
Fluorescence quenching could be categorized into two processes, namely dynamic quenching and static quenching. Dynamic quenching occurs when the quencher collides with biological macromolecules, while static quenching is caused by the formation of complexes. For the dynamic process, the increase in Ksv along with the increase in temperature is expected, and the opposite is seen for the static quenching process. […] Consequently, we know that the combination of PK and MYR/MYT could form PK-MYR and PK-MYT complexes, leading to the static quenching mechanism.
Normally, the maximum collisional quenching constant Kq is about 2 × 10^10 L·mol^−1·s^−1 for small molecule quenchers and biomolecules.
The binding constants and the number of binding sites can be calculated by using a double logarithmic equation [20, 21] (Equation (3)). (3) log[(F0−F)/F]=logKA+nAlog[Q] where KA represents the binding constant between the biomolecule and the quencher, and nA implies the number of binding sites between the quencher and the fluorophor. […] It could be proposed that the binding constant of PK-MYT is larger than that of PK-MYR at the temperature of 290 K, and these two complexes share a similar binding site number n around one.
(4) lnKA=−ΔH/RΤ+ΔS/R (5) ΔG=−RTInKA=ΔH−TΔS where R is the molar gas constant with a general value of 8.314 J·mol^−1·K^−1. ∆H and ∆S are the enthalpy and entropy changes during the fluorescence quenching, respectively. The ∆G in Equation (5) is the Gibbs free energy change in the reaction. In general, the interaction between quenchers and fluorophors can be explained by four forces, including hydrogen bonding, van der Waals forces, electrostatic forces, and hydrophobic interactions. The sign and magnitude of ∆H and ∆S can be used to distinguish the binding forces and properties of the complexes. When ∆H and ∆S are positive, hydrophobic interactions dominate; when both ∆H and ∆S are negative, they can be explained as hydrogen bonding and van der Waals forces; when ∆H and ∆S are very low negative or positive values, there exist electrostatic interactions.
(§1) A Cary Eclipse fluorescence spectrometer (Varian, Palo Alto, CA, USA) was used to determine specific changes in the fluorescence emission of PK at different temperatures. All measurements were recorded at an excitation wavelength of 278 nm and the emission wavelength of 290–450 nm. The excitation and emission slits were adjusted to 5 nm. In synchronous fluorescence measurements, ∆λ was set to 60 and 15 nm.

proteinase K (PK) [2] = target: T1, proteinase K (PK); assay: Förster resonance energy transfer (FRET) between PK (donor) and ligand (acceptor); settings: 290 K; PK and ligand 3.46 μM
Excerpt: The distance and energy transfer between two chromophores, commonly known as the donor and the acceptor, may be computed by the Förster resonance energy transfer (FRET) theory. […] The energy transfer efficiency and binding distance were estimated according to Equation (6). (6) E=1−F/F0=RC^6/RC^6+r^6 where E is the energy transfer efficiency between the donor and the acceptor, r is the binding distance between the donor and the acceptor, and RC is the critical distance when the energy transfer efficiency is 50%, the value of which can be calculated using Equation (7). (7) RC^6=8.8×10^−25(K^2⋅Φ⋅n^−4⋅J) where K^2 is the spatial orientation factor associated with the geometry of the dipole donor and acceptor and generally takes the value of 2/3. Φ is the fluorescence quantum yield of the donor. The symbol n is the average refractive index of the medium and usually takes the value of 1.336 as the average value of water and organic matter. J is the spectral overlap integral between the fluorescence emission spectrum of the donor and the absorption spectrum of the acceptor, and the value is calculated by Equation (8). (8) J=∑(FD(λ)⋅ε(λ)⋅λ^4⋅Δλ)/∑(FD(λ)⋅Δλ) where FD(λ) is the corrected fluorescence intensity of the donor in the wavelength range, ε(λ) is the molar absorption constant of the acceptor at the wavelength, and ∆λ is the span of the wavelength. Following the FRET theory, the main factors affecting the energy transfer efficiency include the fluorescence production of the donor, the overlap of the fluorescence emission spectrum of the donor with the UV–Vis absorption spectrum of the acceptor, and the binding distance between the donor and the acceptor that must be within a specified range of 1 to 10 nm.
Förster resonance energy transfer (FRET) was tracked by overlapping PK emission spectrum (donor) with MYR or MYT absorption spectrum (acceptor). A concentration of 3.46 μM PK was chosen for the fluorescence emission spectroscopy measurements.

proteinase K (PK) [3] = target: T1, proteinase K (PK); assay: Site-tagged competition experiments with ibuprofen and cytisine; settings: for Ksv of free PK: no site marker; for Ksv of PK–cytisine complex as % of that of free PK: site marker cytisine; for Ksv of PK–ibuprofen complex as % of that of free PK: site marker ibuprofen
Excerpt: To determine the binding site of PK, two typical ligands including ibuprofen and cytisine were chosen to perform competitive binding experiments. […] The site-labeling experiments were still performed using Equations (1) and (2) for correction and data analysis, respectively. […] It has been well known that neutral compounds such as ibuprofen and cytisine are likely to bind with proteins through hydrophobic interactions and hydrogen binding. […] This is consistent with the results obtained from the thermodynamic calculations.
For in site labeling competition experiments, an agent such as ibuprofen or cytisine of 3.46 μM was first mixed with PK. […] The excitation wavelengths for PK–ibuprofen and PK–cytisine were 265 and 280 nm, respectively. Fluorescence spectra were analyzed using the Stern–Volmer equation.

proteinase K (PK) [4] = target: T1, proteinase K (PK); assay: Synchronous fluorescence spectroscopy of PK with ligand; settings: 300 K, ligand increased from 0.0 to 25.0 μM; for maximum emission wavelength of PK, synchronous fluorescence (Figure 6B,D): peak near 274 nm; for maximum emission wavelength of PK, synchronous fluorescence (Figure 6A / 6C): peak near 279 nm
Procedure: Synchronous fluorescence spectroscopy studies were performed to observe changes in the molecular environment of Tyr residues and Trp residues in the host structure, which are mainly responsible for fluorescence emission. Therefore, we used the characteristic information of Tyr and Trp residues, ∆λ = 15 nm and ∆λ = 60 nm, respectively, to probe the changes in the PK-MYR and PK-MYT complexes.
as §1

[5] = site marker cytisine 3.46 μM, room temperature, 1 h
[6] = site marker ibuprofen 3.46 μM, room temperature, 1 h

Molecule	Gibbs free energy change ∆G (proteinase K (PK) [1]; T 290 K)	number of binding sites nA (proteinase K (PK) [1]; T 290 K)	Stern–Volmer constant Ksv (proteinase K (PK) [1]; T 290 K)	fluorescence quenching rate constant Kq (proteinase K (PK) [1]; T 290 K)	Gibbs free energy change ∆G (proteinase K (PK) [1]; T 300 K)	number of binding sites nA (proteinase K (PK) [1]; T 300 K)	Stern–Volmer constant Ksv (proteinase K (PK) [1]; T 300 K)	fluorescence quenching rate constant Kq (proteinase K (PK) [1]; T 300 K)	Gibbs free energy change ∆G (proteinase K (PK) [1]; T 310 K)	number of binding sites nA (proteinase K (PK) [1]; T 310 K)	Stern–Volmer constant Ksv (proteinase K (PK) [1]; T 310 K)	fluorescence quenching rate constant Kq (proteinase K (PK) [1]; T 310 K)	enthalpy change ∆H (proteinase K (PK) [1])	fluorescence quenching process (mechanism) (proteinase K (PK) [1])	critical distance RC (proteinase K (PK) [2])	energy transfer efficiency E (proteinase K (PK) [2])	Ksv of free PK (proteinase K (PK) [3])	Ksv of PK–cytisine complex as % of that of free PK (proteinase K (PK) [3])	Stern–Volmer equation quenching constant KSV (proteinase K (PK) [3]; [5])	Ksv of PK–ibuprofen complex as % of that of free PK (proteinase K (PK) [3])	further results
O=c1c(O)c(-c2cc(O)c(O)c(O)c2)oc2cc(O)cc(O)c12 [MYR, Myricetin]	-6.601 kcal/mol	1.0	3.57 10^4 L·mol^−1	3.57 10^12 L·mol^−1·s^−1	-6.03 kcal/mol	0.9	2.46 10^4 L·mol^−1	2.46 10^12 L·mol^−1·s^−1	-5.442 kcal/mol	0.9	1.90 10^4 L·mol^−1	1.90 10^12 L·mol^−1·s^−1	-23.42 kcal/mol	static	3.61 nm	0.105	24600 L/mol	70.73%	1.74 10^4 L·mol^−1	69.51%	Kd (proteinase K (PK) [1]; T 290 K): 16.9 µM; Kd (proteinase K (PK) [1]; T 300 K): 40.5 µM; Kd (proteinase K (PK) [1]; T 310 K): 114 µM; binding distance r (proteinase K (PK) [2]): 5.11 nm; Stern–Volmer equation quenching constant KSV (proteinase K (PK) [3]; [6]): 1.71 10^4 L·mol^−1; Stern–Volmer equation quenching constant KSV (proteinase K (PK) [3]; site marker: blank (free PK)): 2.46 10^4 L·mol^−1; maximum emission wavelength of PK, synchronous fluorescence (Figure 6B,D) (proteinase K (PK) [4]): no shift; maximum emission wavelength of PK, synchronous fluorescence (Figure 6A / 6C) (proteinase K (PK) [4]): 279.0 nm
Myricitrin [MYT]	-6.558 kcal/mol	1.1	2.20 10^4 L·mol^−1	2.20 10^12 L·mol^−1·s^−1	-6.018 kcal/mol	1.0	2.06 10^4 L·mol^−1	2.06 10^12 L·mol^−1·s^−1	-5.28 kcal/mol	0.9	1.88 10^4 L·mol^−1	1.88 10^12 L·mol^−1·s^−1	-25.098 kcal/mol	static	3.42 nm	0.128	20600 L/mol	38.14%	0.78 10^4 L·mol^−1	61.52%	Stern–Volmer equation quenching constant KSV (proteinase K (PK) [3]; [6]): 1.27 10^4 L·mol^−1; Stern–Volmer equation quenching constant KSV (proteinase K (PK) [3]; site marker: blank (free PK)): 2.06 10^4 L·mol^−1; maximum emission wavelength of PK, synchronous fluorescence (Figure 6B,D) (proteinase K (PK) [4]): 274.0 to 276.0 nm; maximum emission wavelength of PK, synchronous fluorescence (Figure 6A / 6C) (proteinase K (PK) [4]): 279.0 to 280.0 nm
